From patent US20260242404A1, “INTERGLYCAN ESTERS OF SUCROSE DICARBOXYLATE AND FRUCTOFURANURONATE, PROCESS FOR THE MANUFACTURE THEREOF, AND USE THEREOF AS A HYPOGLYCEMIC SLOW SUGAR” (priority 2022, published 2026)

Key:
[1] = test system: blood sugar (glucose levels in the blood); assay: Glycemic index by oral induced hyperglycemia protocol (HGPVO / OGTT); assay type: in vivo; conditions: analyses repeated on two subjects, traditional commercial white sugar as control (FIG. 9)
[2] = test system: HbA1c; assay: HbA1c level calculated from average blood sugar level; assay type: in vivo; conditions: HbA1C 7% = 1.5 g/L average blood sugar, 1% HbA1C = 0.30 g/litre
Excerpt: Its consumption is therefore intended for healthy subjects and also for type 2 diabetics. […] For the new natural white granulated or powdered slow sugar of this invention the following result is obtained: [formula] For traditional white commercial sugar and for comparison purposes we obtain the following result: [formula]

SMILES: OC[C@H]1O[C@@](CO)(O[C@H]2O[C@H](CO)[C@@H](O)[C@H](O)[C@H]2O)[C@@H](O)[C@@H]1O [commercial white natural sugar, sucrose]
- glycemic index, in words [1]: very high
- increases HbA1c level by [2]: 9.2%
